Where two headings read alike, the source gives them in different places.
System: T1, synaptosomal proteome
T1 construct: from tissue; host or cells: brain synaptosomes of male C57/B6 mice
Format: binding, mouse
Procedure: Synaptosomes were resuspended to 1 mg of protein/ml in HEPES buffer medium (in mM: 140 NaCl, 5 KCl, 5 NaHCO3, 1.2 NaH2PO4, 1 MgCl2, 10 glucose, and 10 HEPES (pH 7.4)). […] The samples were allowed to equilibrate for 5 min before being transferred to a parafilm-sealed 1-mm path length quartz cuvette. The sample was then irradiated for 20 min at a peak bandwidth of 350 nm (Rayonet RPR-3500 lamp) ∼6 cm from the light source. Non-irradiated samples were left in the dark at ambient temperature (22–25 °C) for 20 min. All remaining procedures were conducted with restricted light exposure.
To 750 μg of photolabeled or control synaptosome samples, 40 μl of 10% SDS and 2 μl of 5 mM DTT in water were added. Samples were then vortexed, heated for 10 min at 65 °C, and then briefly cooled. Final concentrations of 150 μM azide-biotin (Click Chemistry Tools), 2 mM tris(3-hydroxypropyltriazolylmethyl)amine (Sigma), 1 mM ascorbic acid (Sigma), and 1 mM CuSO4·5H2O (Sigma) were added to each sample and vortexed vigorously. The samples were left in the dark at ambient temperature (22–25 °C) for 1 h with mild agitation. Directly to each sample 4× volume chilled methanol, 1.5× chilled chloroform, and 3× chilled double distilled H2O were added. Samples were vortexed vigorously and centrifuged at 1,400 × g for 30 min at 4 °C. Both liquid layers were carefully removed, and the protein pellet was washed with 2 ml of 1:1 (v/v) chilled methanol/chloroform. Samples were centrifuged at 3,500 × g for 30 min at 4 °C. Protein pellets were briefly air-dried before further processing.
750 μg of biotin-conjugated protein sample was resuspended in 500 μl of 25 mM NH4HCO3 and 6 M urea in water. Next, 150 μl of 5% Triton X-100 in water, 50 μl of 10% SDS in water, and 1.5 μl of 0.5 M DTT were added. The samples were heated for 15 min at 65 °C. After briefly cooling, 14 μl of 0.5 M iodoacetamide in water was added, and the sample was left in the dark for 45 min. […] The supernatant was diluted to 4 ml with PBS, and 2 ml of PBS containing 100 μl of 50% streptavidin-agarose resin (Thermo Scientific) was added. Biotinylated proteins within the sample were captured over resin overnight at 4 °C with mild agitation. The resin was first washed with 6 ml of 1% SDS in PBS, and then 7 ml of 0.1 M urea in PBS followed by 10 ml of PBS. The resin underwent a final wash with 0.9 ml of 50 mM Tris-HCl and 1 mM CaCl2 in water (pH 8.0) and then resuspended in 200 μl of 50 mM Tris-HCl, 1 mM CaCl2 in water (pH 8.0), and 2 μg of porcine sequencing grade trypsin (Promega). Samples were digested overnight at 37 °C. Samples were then centrifuged at 2,000 × g for 4 min, and digest supernatant was decanted. Beads were washed in 100 μl of PBS centrifuged at 5,200 × g for 5 min, and the wash was combined with the digest supernatant. To the combined sample, trifluoroacetic acid (TFA) was added to 0.4% (v/v) or until pH <2. The sample was desalted with Oasis C18 10-mg columns (Waters) as described previously ([66]). The eluted sample was dried by speed vac and resuspended in 0.1 M HEPES buffer (pH 8.5). […] Appropriate corresponding TMTsixplex^TM-labeled samples were pooled and dried by speed vac. The combined samples were resuspended in 0.5% acetic acid in water and pH-corrected with acetic acid until pH was <2. 40 μg of protein was desalted with C18 stage tips prepared in-house and dried by speed vac.
Samples were resuspended in 10 mM KH2PO4 (pH 2.6), 30% acetonitrile (v/v) in water, and fractionated by off-line strong cation exchange chromatography prior to mass spectrometry (MS) analysis similar to as reported previously ([66]). The full synaptosome proteome control was prepared similarly without TMTsixplex^TM labeling.
All TMT samples were analyzed with three-stage mass spectrometry (MS3) TMTsixplex^TM quantification workflow as described previously ([34]).

[1] = protein P27671 Ras-specific guanine nucleotide-releasing factor 1 (Rasgrf1)
[2] = protein P35762 CD81 antigen (Cd81)
[3] = protein P46096 Synaptotagmin-1 (Syt1)
[4] = protein P50544 Very long-chain specific acyl-CoA dehydrogenase, mitochondrial (Acadvl)
[5] = protein P50571 Gamma-aminobutyric acid receptor subunit beta-1 (Gabrb1)
[6] = protein P56564 Excitatory amino acid transporter 1 (Slc1a3)
[7] = protein P60879 Synaptosomal-associated protein 25 (Snap25)
[8] = protein P61264 Syntaxin-1B (Stx1b)
[9] = protein P62204 Calmodulin (Calm1)
[10] = protein P63328 Serine/threonine-protein phosphatase 2B catalytic subunit alpha isoform (Ppp3ca)
[11] = protein Q2TPA8 Hydroxysteroid dehydrogenase-like protein 2 (Hsdl2)
[12] = protein Q3TXX4 Vesicular glutamate transporter 1 (Slc17a7)
[13] = protein Q3UN02 Lysocardiolipin acyltransferase 1 (Lclat1)
[14] = protein Q4W8U9 Scg2 protein (Scg2)
[15] = protein Q5U458 DnaJ homolog subfamily C member 11 (Dnajc11)
[16] = protein Q7TME0 Lipid phosphate phosphatase-related protein type 4 (Lppr4)
[17] = protein Q7TQ95 Protein lunapark (Lnp)
[18] = protein Q8BFT9 Synaptic vesicle 2-related protein (Svop)
[19] = protein Q8BG39 Synaptic vesicle glycoprotein 2B (Sv2b)
[20] = protein Q8BH59 Calcium-binding mitochondrial carrier protein Aralar1 (Slc25a12)
[21] = protein Q8BH66 Atlastin-1 (Atl1)
[22] = protein Q8BUN9 Protein Slc24a2 (Slc24a2)
[23] = protein Q8BW75 Amine oxidase [flavin-containing] B (Maob)
[24] = protein Q8CGK7 Guanine nucleotide-binding protein G(olf) subunit alpha (Gnal)
[25] = protein Q8K0T0 Reticulon-1 (Rtn1)
[26] = protein Q9CPQ3 Mitochondrial import receptor subunit TOM22 homolog (Tomm22)
[27] = protein Q9CWK8 Sorting nexin-2 (Snx2)
[28] = protein Q9D6J5 NADH dehydrogenase [ubiquinone] 1 beta subcomplex subunit 8, mitochondrial (Ndufb8)
[29] = protein Q9D328 Transmembrane protein 35 (Tmem35)
[30] = protein Q9ERS2 NADH dehydrogenase [ubiquinone] 1 alpha subcomplex subunit 13 (Ndufa13)
[31] = protein Q9ESW4 Acylglycerol kinase, mitochondrial (Agk)
[32] = protein Q9QXV0 ProSAAS (Pcsk1n)
[33] = protein Q9QZM0 Ubiquilin-2 (Ubqln2)
[34] = protein Q9R0K7 Plasma membrane calcium-transporting ATPase 2 (Atp2b2)
[35] = protein Q9Z0V2 Potassium voltage-gated channel subfamily D member 2 (Kcnd2)
[36] = protein Q67BT3 Solute carrier family 13 member 5 (Slc13a5)
[37] = protein Q80X80 C2 domain-containing protein 2-like (C2cd2l)
[38] = protein Q91YQ5 Dolichyl-diphosphooligosaccharide--protein glycosyltransferase subunit 1 (Rpn1)
[39] = protein Q99PU5 Long-chain-fatty-acid--CoA ligase ACSBG1 (Acsbg1)

SMILES: CC(C)c1cccc(C(C)C)c1O [propofol, 2,6-diisopropylphenol, reference compound]
- % propofol protection [1]: 54%
- Log2( Mean 'UV/ UV+propofol') [1]: 1.10
- % propofol protection (protein P35564 Calnexin (Canx)): 54%
- Log2( Mean 'UV/ UV+propofol') (protein P35564 Calnexin (Canx)): 1.07
- % propofol protection [2]: 58%
- Log2( Mean 'UV/ UV+propofol') [2]: 1.14
- % propofol protection [3]: 50%
- Log2( Mean 'UV/ UV+propofol') [3]: 0.95
- % propofol protection [4]: 51%
- Log2( Mean 'UV/ UV+propofol') [4]: 0.99
- % propofol protection [5]: 58%
- Log2( Mean 'UV/ UV+propofol') [5]: 1.06
- Log2( Mean 'UV/ UV+propofol') (protein P56480 ATP synthase subunit beta, mitochondrial (Atp5b)): 1.15
- % propofol protection [6]: 56%
- Log2( Mean 'UV/ UV+propofol') [6]: 1.10
- % propofol protection [7]: 57%
- Log2( Mean 'UV/ UV+propofol') [7]: 1.12
- % propofol protection [8]: 57%
- Log2( Mean 'UV/ UV+propofol') [8]: 1.14
- % propofol protection [9]: 53%
- Log2( Mean 'UV/ UV+propofol') [9]: 0.97
- % propofol protection [10]: 52%
- Log2( Mean 'UV/ UV+propofol') [10]: 0.93
- % propofol protection [11]: 53%
- Log2( Mean 'UV/ UV+propofol') [11]: 1.03
- % propofol protection [12]: 57%
- Log2( Mean 'UV/ UV+propofol') [12]: 1.15
- % propofol protection [13]: 52%
- Log2( Mean 'UV/ UV+propofol') [13]: 1.03
- % propofol protection [14]: 53%
- Log2( Mean 'UV/ UV+propofol') [14]: 0.99
- Log2( Mean 'UV/ UV+propofol') (protein Q5IRJ6 Zinc transporter 9 (Slc30a9)): 1.17
- % propofol protection [15]: 53%
- Log2( Mean 'UV/ UV+propofol') [15]: 0.96
- % propofol protection [16]: 57%
- Log2( Mean 'UV/ UV+propofol') [16]: 1.08
- % propofol protection [17]: 58%
- Log2( Mean 'UV/ UV+propofol') [17]: 1.23
- % propofol protection [18]: 53%
- Log2( Mean 'UV/ UV+propofol') [18]: 0.94
- % propofol protection [19]: 50%
- Log2( Mean 'UV/ UV+propofol') [19]: 0.94
- Log2( Mean 'UV/ UV+propofol') (protein Q8BG51 Mitochondrial Rho GTPase 1 (Rhot1)): 1.18
- Log2( Mean 'UV/ UV+propofol') (protein Q8BH24 Transmembrane 9 superfamily member 4 (Tm9sf4)): 1.11
- % propofol protection [20]: 50%
- Log2( Mean 'UV/ UV+propofol') [20]: 0.98
- % propofol protection [21]: 57%
- Log2( Mean 'UV/ UV+propofol') [21]: 1.14
- % propofol protection [22]: 52%
- Log2( Mean 'UV/ UV+propofol') [22]: 1.03
- % propofol protection [23]: 56%
- Log2( Mean 'UV/ UV+propofol') [23]: 1.10
- % propofol protection [24]: 55%
- Log2( Mean 'UV/ UV+propofol') [24]: 1.05
- % propofol protection [25]: 57%
- Log2( Mean 'UV/ UV+propofol') [25]: 1.05
- Log2( Mean 'UV/ UV+propofol') (protein Q8VCX5 Calcium uptake protein 1, mitochondrial (Micu1)): 1.09
- % propofol protection [26]: 57%
- Log2( Mean 'UV/ UV+propofol') [26]: 1.05
- % propofol protection [27]: 51%
- Log2( Mean 'UV/ UV+propofol') [27]: 1.00
- % propofol protection [28]: 57%
- Log2( Mean 'UV/ UV+propofol') [28]: 1.23
- % propofol protection [29]: 55%
- Log2( Mean 'UV/ UV+propofol') [29]: 1.10
- % propofol protection [30]: 53%
- Log2( Mean 'UV/ UV+propofol') [30]: 0.98
- % propofol protection [31]: 58%
- Log2( Mean 'UV/ UV+propofol') [31]: 1.18
- Log2( Mean 'UV/ UV+propofol') (protein Q9JIG8 PRA1 family protein 2 (Praf2)): 1.23
- % propofol protection [32]: 57%
- Log2( Mean 'UV/ UV+propofol') [32]: 1.11
- % propofol protection [33]: 51%
- Log2( Mean 'UV/ UV+propofol') [33]: 0.96
- % propofol protection [34]: 51%
- Log2( Mean 'UV/ UV+propofol') [34]: 1.00
- Log2( Mean 'UV/ UV+propofol') (protein Q9WU79 Proline dehydrogenase 1, mitochondrial (Prodh)): 1.11
- % propofol protection [35]: 52%
- Log2( Mean 'UV/ UV+propofol') [35]: 1.01
- % propofol protection [36]: 57%
- Log2( Mean 'UV/ UV+propofol') [36]: 1.13
- % propofol protection [37]: 53%
- Log2( Mean 'UV/ UV+propofol') [37]: 1.04
- % propofol protection [38]: 55%
- Log2( Mean 'UV/ UV+propofol') [38]: 1.11
- % propofol protection [39]: 58%
- Log2( Mean 'UV/ UV+propofol') [39]: 1.12
- Log2( Mean 'UV/ UV+propofol') (protein Q925I1 ATPase family AAA domain-containing protein 3 (Atad3)): 1.17
